{
  "source": "patent US20160151410A1",
  "about": "“CLEARANCE OF BIOACTIVE LIPIDS FROM MEMBRANE STRUCTURES BY CYCLODEXTRINS” (The Trustees of Columbia University in the City of New York, priority 2013, published 2016)",
  "key": {"[1]": {"tested_on": "rabbit cornea after alkali burn", "assay": "Rabbit corneal neovascularization by alkali burn", "type": "in vivo", "experimental": "Alkali burn on central cornea was performed with 6 mm filter paper disc wetted with 8 μl of 1M NaOH. Cornea were then extensively washed with PBS, followed by treatment with control formula (left eye) and cyclodextrin formula (right eye) as described in Materials and Methods. The bottom two pictures are fluorescein angiograms showing the leaking new vessels in the cornea. White arrows in pictures show corneal neovascularization.\n3 New Zealand white rabbits, aged 4-5 months and weighing 1.8-2.6 kg, were obtained from Charles River Laboratories (Wilmington, Mass.) and acclimatized for several weeks before the experiments started. All of the rabbits were anesthetized using ketamine (42 mg/kg) and xylazine (7 mg/kg) intramuscularly. 0.5% proparacaine hydrochloride (Akorn, Inc. Lake Forest, Ill.) was applied topically. Alkali burn on central cornea of both eyes was performed with 6 mm round disc of Whatman No. 1 filter paper wetted with […] of 1M NaOH for exactly 1 minute, filter paper was then removed and the cornea was extensively irrigated with 200 ml of PBS for 10 minutes. Left eye and right eye were then treated with control formula (6 mg/ml of POPC liposome in PBS) and cyclodextrin formula (50 mM HPαCD and 16.7 mM HPβCD in control formula), respectively. […]"}, "ARPE-19 cells": {"tested_on": "ARPE-19 cells", "type": "cell-based", "experimental": "(A, B) 40-50% confluent ARPE-19 cells in 96-well plate were cultured with serum-free medium for 24 hours, then incubated with 0.1 ml of serum-free medium containing 0-100 μM 1-Palmitoyl-sn-glycero-3-phosphocholine (LPC) for 22 hours. Cell morphology of control cells and 100 μM LPC treated cells was observed under a microscope, as shown in (B). The cells were then incubated with 0.15 ml of serum-free medium containing 0.5 mg/ml MTT at 37° C. for 2 hours. Formation of formazan is detected at 540 nm with 0.1 ml of DMSO as solvent (A). (C) As performed in (A), but with 100 μM LPC pre-incubated for 1 hour with 0-20 mM HPαCD, significant protection of HPαCD on ARPE-19 cells was observed when used at 0.5 mM or greater in medium (marked with *).\nHuman retinal pigment epithelial cell line, ARPE-19, was purchased from ATCC (Manassas, Va.). The cells were cultured in Dulbecco's modified Eagle's medium supplemented with 10% of heat-inactivated fetal bovine serum (FBS), 100 IU/ml of penicillin, and […] of streptomycin (all cell culture products from Invitrogen-Gibco, Rockville, Md.). Cells were maintained at 37° C. in a 5% CO2 incubator with medium change every 3-4 days. […]\nCell viability was determined with the colorimetric MTT metabolic activity assay. […] After removal of cell culture medium, formation of formazan from MTT reduction was detected at 540 nm with 0.1 ml of DMSO as solvent."}, "[2]": {"tested_on": "lysophospholipids from LIPC-digested human LDL", "assay": "Extraction of lysophospholipids from LIPC-digested LDL by cyclodextrins, read out as complement C3 fixation", "type": "biochemical", "details": "for complement activation after cyclodextrin extraction of LIPC-digested LDL: 20 mM cyclodextrin", "experimental": "Immobilized LDL was digested with LIPC, then 20 mM of different cyclodextrins (A), or 0-20 mM HPαCD (B), or 20 mM HPαCD (C), or 2 mM of HPαCD in combination with 0.5 mg/ml of native LDL (D) are used for 20 hours extraction (A, B, D), or 0-20 hours extraction (C). Complement activation with diluted native human serum was then performed. MβCD—methyl-β-cyclodextrin; HPβCD—hydroxypropyl-β-cyclodextrin.\n(§1) 96-well NUNC MaxiSorp plates were coated with 40 μl of human LDL, VLDL, or NaOH-hydrolyzed LDL, all at 200 μg/ml in PBS, at 4° C. overnight then 37° C. for 1 hour, and remaining binding sites were blocked with 3% BSA in PBS at 37° C. for 1 hour. The wells were washed and then incubated with 40 μl of LIPC or CEase in PBS containing 2% BSA at 37° C. for 1 or 2 hours as indicated in Results section, and the degradation reaction was stopped by washing the plate with PBS. For complement system activation, the resulted plate was incubated with 20 μl of 1:1 diluted human sera at 21° C. for 30 minutes. The diluent for serum dilution was PBS containing calcium and magnesium, and human sera that were utilized in our study were native serum, C1q-depleted serum, factor B-depleted serum, native serum with addition of 10 mM of MgCl2 and 20 mM EGTA (Mg-EGTA), and native serum with addition of 10 mM EDTA.\nAfter thorough washing of the plate, C3 fixation and final membrane attack complex formation on the plate were determined with anti-human C3d antibody and anti-human C5b-9 antibody, in combination with HRP-conjugated secondary antibody, respectively. The monoclonal anti-human C3d antibody is reactive to all C3d-containing fragments of C3, but not with C3 itself, so it detects C3 fixation on the plate and not C3 absorption. The final peroxidase activity was monitored at 450 nm with 3,3′,5,5′-tetramethyl-benzidine and hydrogen peroxide as substrates after 10 or 15 minutes reaction at room temperature.\nWe tested several cyclodextrins for the ability to extract lysophospholipids from LIPC-digested human LDL. Since lysophospholipid level in lipoprotein is directly related to complement C3 fixation, we use C3 fixation as an indicative parameter for levels of lysophospholipids in lipoprotein. […] We also tested HPαCD upon shuttling of lysophospholipids between LIPC-digested LDL and native LDL, a biological feature of lipid transport (FIG. 4D)."}, "[3]": {"tested_on": "classical pathway of complement system", "assay": "Complement activation (C3 fixation) by LIPC- or CEase-digested immobilized LDL with human serum", "type": "biochemical", "experimental": "96-well MaxiSorp plates were coated with fresh human LDL (A, D, E), VLDL (B), or NaOH-hydrolyzed LDL (C). After blocking with BSA, the plates, except (C), were digested with LIPC. To test complement activation, the plates were incubated with diluted native human serum (N), C1q-depleted human serum (Cd), factor B-depleted human serum (Bd), or human serum containing Mg-EGTA (ME). C3 fixation on the plate was detected with a monoclonal anti-C3d antibody followed by HRP-conjugated secondary antibody. Specific conditions for LIPC digestion and HRP-catalyzed color development of each experiment were outlined as following: LIPC was used at 10 μg/ml for (A, B, E), 0-50 μg/ml for (D), and no LIPC for (C). LIPC degradation was 1 hour for (D), 2 hours for (A, B), and 0-2 hours for (E). Color development was 15 minutes for (A, B, C, E) and 10 minutes for (D). For NaOH hydrolysis of LDL, 1.35 mg/ml of LDL was incubated in 0.15M NaOH solution at 25° C. for up to 60 minutes. Aliquots were taken out and neutralized with 0.15M HCl at 1, 10, 20, 60 minutes.\nLIPC and CEase, both having 8 μUnits of phospholipase A1 activity but having 3 μUnits and 8125 μUnits of triglyceride hydrolase activity respectively, were used for 2 hours digestion of immobilized LDL. Complement activation with diluted native human serum is then determined as in FIG. 1. The HRP-catalyzed color development was 15 minutes.\nHuman LDL coating and 1 hour (C) or 2 hours (A, B) LIPC digestion was performed as described in FIG. 1. (A) For complement activation, 0-50 μM of phosphocholine was added into diluted native human serum. […]\n(§2) After thorough washing of the plate, C3 fixation and final membrane attack complex formation on the plate were determined with anti-human C3d antibody and anti-human C5b-9 antibody, in combination with HRP-conjugated secondary antibody, respectively. […] The final peroxidase activity was monitored at 450 nm with 3,3′,5,5′-tetramethyl-benzidine and hydrogen peroxide as substrates after 10 or 15 minutes reaction at room temperature."}, "C5b-9": {"tested_on": "C5b-9", "assay": "Terminal complement complex (C5b-9) formation by LIPC-digested LDL", "type": "biochemical", "details": "human serum with additional CRP", "experimental": "Immobilized LDL was digested by LIPC and then incubated with human serum with or without additional CRP. C3 fixation (A) and C5b-9 formation (B) was determined by specific primary and HRP-conjugated secondary antibodies.\nas §1, with “The diluent for serum dilution was PBS containing calcium and magnesium, and human sera that were utilized in our study were native serum, C1q-depleted serum, factor B-depleted serum, native serum with addition of 10 mM of MgCl2 and 20 mM EGTA (Mg-EGTA), and native serum with addition of 10 mM EDTA.” left out\nas §2"}},
  "note": "“Also recorded” adds a separate entry of the source.",
  "data": [
    {"molecule": "2-hydroxypropyl-α-cyclodextrin [HPαCD]", "values": [
      {"measurement": "neovascularization area and vessel length", "setting": "[1]; FIG. 7 representative result", "result": "reduced dramatically"},
      {"measurement": "inhibition of corneal neovascularization", "setting": "[1]; topical after alkali burn, right eye vs control formula left eye, three rabbits", "result": "dramatic effect of HPαCD extraction on inhibition of corneal neovascularization"},
      {"measurement": "HPαCD concentration giving significant protection of ARPE-19 cells", "setting": "ARPE-19 cells; 100 μM LPC pre-incubated 1 hour with 0-20 mM HPαCD", "result": "≥ 0.5", "unit": "mM"},
      {"measurement": "extraction of complement-activating lysophospholipids, dose and time dependence", "setting": "[2]; 0-20 mM HPαCD for 20 hours, 20 mM HPαCD for 0-20 hours", "result": "dose- and time-dependent"},
      {"measurement": "extraction of lysophospholipids, HPαCD alone at low level", "setting": "[2]; 2 mM HPαCD alone, 20 hours extraction", "result": "cannot extract much lysophospholipids"},
      {"measurement": "extraction of lysophospholipids, HPαCD in combination with native LDL", "setting": "[2]; 2 mM HPαCD with 0.5 mg/ml native LDL, 20 hours extraction", "result": "extract the most lysophospholipids"},
      {"measurement": "complement activation after cyclodextrin extraction of LIPC-digested LDL", "setting": "[2]; 20 hours extraction", "result": "significantly less complement activation; also recorded: Significant extraction of lysophospholipids"}
    ]},
    {"molecule": "2-hydroxypropyl-β-cyclodextrin [reference compound]", "values": [
      {"measurement": "complement activation after cyclodextrin extraction of LIPC-digested LDL", "setting": "[2]; 20 hours extraction", "result": "much weaker effects"}
    ]},
    {"molecule": "CCCCCCCCCCCCCCCC(=O)OC[C@@H](O)COP(=O)([O-])OCC[N+](C)(C)C", "note": "[1-palmitoyl-sn-glycero-3-phosphocholine, reference compound]", "values": [
      {"measurement": "concentration inducing ARPE-19 cell death", "setting": "ARPE-19 cells; serum-free medium, 22 hours, 0-100 μM tested", "result": "≥ 20", "unit": "μM"}
    ]},
    {"molecule": "C[N+](C)(C)CCOP(=O)([O-])O", "note": "[phosphocholine, reference compound]", "values": [
      {"measurement": "complement activation by LIPC-digested LDL, phosphocholine added into serum", "setting": "[3]; 0-50 μM phosphocholine in diluted native human serum", "result": "significantly decreases complement activation"}
    ]},
    {"molecule": "OC[C@H]1O[C@@H]2O[C@H]3[C@H](O)[C@@H](O)[C@@H](O[C@H]4[C@H](O)[C@@H](O)[C@@H](O[C@H]5[C@H](O)[C@@H](O)[C@@H](O[C@H]6[C@H](O)[C@@H](O)[C@@H](O[C@H]7[C@H](O)[C@@H](O)[C@@H](O[C@H]1[C@H](O)[C@H]2O)O[C@@H]7CO)O[C@@H]6CO)O[C@@H]5CO)O[C@@H]4CO)O[C@@H]3CO", "note": "[α-cyclodextrin, reference compound]", "values": [
      {"measurement": "complement activation after cyclodextrin extraction of LIPC-digested LDL", "setting": "[2]; 20 hours extraction", "result": "much weaker effects"}
    ]},
    {"molecule": "OC[C@H]1O[C@@H]2O[C@H]3[C@H](O)[C@@H](O)[C@@H](O[C@H]4[C@H](O)[C@@H](O)[C@@H](O[C@H]5[C@H](O)[C@@H](O)[C@@H](O[C@H]6[C@H](O)[C@@H](O)[C@@H](O[C@H]7[C@H](O)[C@@H](O)[C@@H](O[C@H]8[C@H](O)[C@@H](O)[C@@H](O[C@H]1[C@H](O)[C@H]2O)O[C@@H]8CO)O[C@@H]7CO)O[C@@H]6CO)O[C@@H]5CO)O[C@@H]4CO)O[C@@H]3CO", "note": "[β-cyclodextrin, reference compound]", "values": [
      {"measurement": "complement activation after cyclodextrin extraction of LIPC-digested LDL", "setting": "[2]; 20 hours extraction", "result": "much weaker effects"}
    ]},
    {"molecule": "methyl-β-cyclodextrin [reference compound]", "values": [
      {"measurement": "complement activation after cyclodextrin extraction of LIPC-digested LDL", "setting": "[2]; 20 hours extraction", "result": "much weaker effects"}
    ]},
    {"molecule": "CRP: purified human CRP, binding protein of lysophosphatidylcholine (protein, UniProt P02741 19-224, looked up) C-reactive protein: QTDMSRKAFVFPKESDTSYVSLKAPLTKPLKAFTVCLHFYTELSSTRGYSIFSYATKRQDNEILIFWSKDIGYSFTVGGSEILFEVPEVTVAPVHICTSWESASGIVEFWVDGKPRVRKSLKKGYTVGAEASIILGQEQDSFGGNFEGSQSLVGDIGNVNMWDFVLSPDEINTIYLGGPFSPNVLNWRALKYEVQGEVFTKPQLWP", "values": [
      {"measurement": "C3 fixation by LIPC-digested LDL with additional CRP", "setting": "[3]; native human serum supplemented with purified human CRP", "result": "dose-dependently enhances its activity on complement activation; also recorded: enhances C3 fixation"},
      {"measurement": "terminal complement complex formation with additional CRP", "setting": "C5b-9", "result": "blocks the terminal complement complex formation"}
    ]}
  ]
}
